Assay results from patent publication US6958353B2, “Imidazole derivatives or salts thereof and drugs containing the derivatives or the salts” (Hisamitsu Medical Co., Ltd., priority 2000, dated 2005).

What was measured:
RAW 264.7 cells [1] = assay: Effect of inhibiting production of IL-6 in LPS-stimulated RAW 264.7 cells (ELISA); assay type: cell-based; conditions: Mus musculus, RAW264.7, compound at 2 μg/mL, read-out: IL-6 production inhibitory effect Percent inhibition (%)
Description: (§1) Effect of Inhibiting Production of NO and IL-6
(§2) Growth of RAW 264.7 cells (mouse macrophage strains) was maintained in an RPMI 1640 medium containing 10% fetal bovine serum (FBS) and an antibiotic (10% FBS/RPMI) under culture conditions of 5% CO2 at 37° C. Upon testing, RAW 264.7 cells were washed with cold Dulbecco's phosphate buffered saline and subsequently removed from the plastic culture bottle by use of EDTA/trypsin. The thus-removed cells were centrifuged-and washed, followed by dilution with 10% FBS/RPMI to 4×10^5/mL. The cell suspension (0.5 mL) was added to each well of a 24-well-plate, and cultured under 5% CO2, at 37° C. for 16 hours. […] The live cells were washed once with 1% FBS/RPMI. Each test compound was diluted with the same medium, to thereby adjust the concentration to a predetermined level, and the liquid containing the test compound was added to the washed cells. […] NO contained in the culture supernatant was quantitated for its stable form (NO2^−) by use of a Griess reagent kit (product of Wako Pure Chemical Industries Ltd.). IL-6 was quantitated by use of an ELISA kit (product of Amersham) in accordance with the manual thereof. […]

RAW 264.7 cells [2] = assay: Effect of inhibiting production of NO in LPS-stimulated RAW 264.7 cells (Griess reagent); assay type: cell-based, mouse; conditions: compound 2 μg/mL, RAW 264.7 cells stimulated with LPS 25 ng/mL
Description: as §1, §2

[3] = system: carrageenan-induced edema; assay: Anti-inflammatory effect 1: effect against carrageenan-induced edema; assay type: in vivo; conditions: mouse, leg volume 9 days after carrageenan
Source text: Anti-inflammatory Effect 1: Effect Against Carrageenan-induced Edema
Male ICR mice (4 weeks old, Japan Charles River Co., Ltd.) were pre-bred in a breeding cage for about one week, and-healthy mice were selected for the test.
(2) Drugs Employed in the Test:
Each test compound was suspended in a 0.5% carboxymethyl cellulose sodium (0.5% CMC-Na solution, product of Wako Pure Chemical Industries, Ltd.) or dissolved in purified water. The suspension or solution was perorally administered at a dose of 0.1 mL/10 g (body weight of each mouse).
λ-Carrageenan (Picnin A, product of Zushi Kagaku) dissolved in physiological saline was used.
The volume of the right rear leg of each mouse was measured by means of a plethysmometer (product of Ugo Basile). Subsequently, a 2% carrageenan solution (0.05 mL) was injected into the foot pad of the leg. Five days after the injection of carrageenan (inflammation-inducing agent), the volume of the leg was measured. The mice were divided into groups, each group containing 8 mice. From the day of division (i.e., 5 days after administration of carrageenan), each test compound was preorally administered once per day for four days. The leg volume was measured before administration of each test compound and on the day after the final administration day (i.e., 9 days after administration of carrageenan). Percent edema and percent inhibition due to the test compound were calculated in accordance with the following equations, respectively. Percent edema (%)=[(leg volume (mL) after inflammation treatment−leg volume (mL) before inflammation treatment)/(leg volume (mL) before inflammation treatment)]×100 Percent inhibition (%)=[percent edema of control group (%)−percent edema of test-compound-administered group (%))/(percent edema of control group (%))]×100

c1ccc(-c2ncc(OCCOc3ccc(Cn4ccnc4)cc3)nc2-c2ccccc2)cc1 [Compound 1A, 5-2-[4-(1H-imidazolylmethyl)phenoxy]ethoxy-2,3-diphenylpyrazine]
inhibition at 2 µg/mL (RAW 264.7 cells [1]): 54.6%
inhibition at 2 µg/mL (RAW 264.7 cells [2]; Mus musculus, RAW264.7, read-out: NO production inhibitory effect Percent inhibition (%)): 86%
Percent inhibition (%) of carrageenan-induced edema ([3]; 3 mg/kg perorally once per day for four days): 30.5%

5-(2-[4-(1H-Imidazolylmethyl)phenoxy]ethyl)sulfanil-2,3-diphenylpyrazine [Compound 1I]
NO production inhibitory effect Percent inhibition (%) (RAW 264.7 cells [2]): 62.8%

COc1ccc2c(c1)c(CC(=O)O)c(C)n2C(=O)c1ccc(Cl)cc1 [Indomethacin]
Percent inhibition (%) of carrageenan-induced edema ([3]; 1 mg/kg perorally once per day for four days): 23.8%

[O-][S+](CCOc1ccc(Cn2ccnc2)cc1)c1cnc(-c2ccccc2)c(-c2ccccc2)n1 (stereo not drawn) [Compound 1J, 5-(2-[4-(1H-imidazolylmethyl)phenoxy]ethyl)sulfinyl-2,3-diphenylpyrazine]
Percent inhibition (%) of carrageenan-induced edema ([3]; 10 mg/kg perorally once per day for four days): 41.2%
